Measured values taken from patent publication US10604555B2, “GIP derivatives and uses thereof” (priority 2018, dated 2020).
*1 amine or outer side, *2 acyl side, *3 side chain or, on linkers, in order; H or OH if unused. Where a SMILES comes first, the peptide text is derived from it. Side-chain parts run from the residue outwards. [ ]: non-standard residue; d: D form. The star is where a group is joined. C18 diacid = O=C(O)CCCCCCCCCCCCCCCCC(=O)*; γGlu = O=C(O)[C@H](CCC(=O)[*:2])N[*:1]; Nle = CCCC[C@H](N)C(=O)O; AEEA = NCCOCCOCC(=O)O; Aib = CC(C)(N)C(=O)O

target: T1, human GIP receptor (Homo sapiens, UniProt P48546); experiment: In vitro potency (CRE luciferase; whole cells), BHK CRE luc2P hGIPR; assay type: cell-based; conditions: 0.2% HSA
T1 construct: expressed in transfected cells; host or cells: BHK (parent line BHKTS13), BHK CRE luc2P hGIPR clone #5
T1 sequence (P48546 22-466): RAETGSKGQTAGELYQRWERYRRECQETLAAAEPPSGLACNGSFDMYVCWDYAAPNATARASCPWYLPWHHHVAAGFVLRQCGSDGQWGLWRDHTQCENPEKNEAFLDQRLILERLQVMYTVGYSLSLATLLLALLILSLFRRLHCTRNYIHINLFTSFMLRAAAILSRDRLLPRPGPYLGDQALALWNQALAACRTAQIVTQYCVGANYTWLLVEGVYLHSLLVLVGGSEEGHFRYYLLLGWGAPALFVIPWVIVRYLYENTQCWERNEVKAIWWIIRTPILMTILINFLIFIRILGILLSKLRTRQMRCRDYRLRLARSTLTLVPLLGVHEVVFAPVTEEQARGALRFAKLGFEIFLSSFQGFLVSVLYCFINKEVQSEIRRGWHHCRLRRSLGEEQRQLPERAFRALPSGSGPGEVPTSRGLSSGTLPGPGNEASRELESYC
Description: In Vitro Potency (CRE Luciferase; Whole Cells)
The in vitro potency is the measure of human GIP, GLP-1 or glucagon receptor activation, respectively, in a whole cell assay.
In vitro potency was determined by measuring the response of the human GIP, GLP-1 or glucagon receptor in a reporter gene assay in individual cell lines. […] When the respective receptor is activated it results in the production of cAMP, which in turn results in the luciferase protein being expressed. When assay incubation is completed the luciferase substrate (luciferin) is added and the enzyme converts luciferin to oxyluciferin to produce bioluminescence. The luminescence is measured as the readout for the assay.
The cells were derived from a clone containing the CRE luciferase element and were established by further transfection with the respective receptor to obtain the current clone.
The cells were cultured at 5% CO2 in Cell Culture Medium. They were aliquoted and stored in liquid nitrogen. The cells were kept in passage and were seeded out the day before each assay.
The Assay Buffer consisted of 1% ovalbumin and 0.1% Pluronic F-68 in Assay Medium with the addition of human serum albumin at twice the indicated concentrations.
1) Cells were plated at 5000 cells/well and incubated overnight.
2) Cells were washed three times in PBS.
3) Assay Medium (50 μl aliquot) with or without serum albumin was added to each well in the assay plate.
4) Stocks of the test compounds and reference compounds were diluted to a concentration of 0.2 μM in Assay Buffer. […] 8) The cells were washed three times with PBS plus some liquid in each well. 9) A 100 μl aliquot of steadylite plus reagent was added to each well of the assay plate (reagent was light sensitive). 10) Each assay plate was covered with aluminum foil to protect it from light and shaken for 30 min at room temperature. 11) Each assay plate was read in a microtiter plate reader. Calculations and Results
The data from the microtiter plate reader was transferred to GraphPad Prism software. The software performs a non-linear regression (log(agonist) vs response).
A minimum of two replicates was measured for each sample. The reported values are averages of the replicates.

| EC50 | SMILES |
| --- | --- |
| 0.0915 nM | CC[C@H](C)[C@H](NC(=O)[C@H](CO)NC(=O)[C@H](Cc1ccc(O)cc1)NC(=O)[C@H](CC(=O)O)NC(=O)[C@H](CO)NC(=O)[C@@H](NC(=O)[C@H](Cc1ccccc1)NC(=O)[C@@H](NC(=O)CNC(=O)[C@H](CCC(=O)O)NC(=O)[C@H](C)NC(=O)[C@@H](Cc1ccc(O)cc1)NC(C)=O)[C@@H](C)O)[C@@H](C)CC)C(=O)N[C@@H](C)C(=O)N[C@@H](CC(=O)O)C(=O)N[C@@H](CC(=O)O)C(=O)N[C@@H](CCCCN)C(=O)N[C@H](C(=O)N[C@@H](CCCNC(=N)N)C(=O)N[C@@H](CCC(N)=O)C(=O)N[C@@H](CCC(=O)O)C(=O)N[C@@H](CC(=O)O)C(=O)N[C@@H](Cc1ccccc1)C(=O)N[C@H](C(=O)N[C@@H](CCCCNC(=O)COCCOCCNC(=O)COCCOCCNC(=O)CC[C@H](NC(=O)CCCCCCCCCCCCCCCCC(=O)O)C(=O)O)C(=O)N[C@@H](Cc1c[nH]c2ccccc12)C(=O)N[C@@H](CC(C)C)C(=O)N[C@@H](CC(C)C)C(=O)N[C@@H](C)C(=O)N[C@@H](CCC(N)=O)C(=O)N[C@@H](CCCCN)C(=O)NCC(=O)O)C(C)C)[C@@H](C)CC [Compound 19, N{1}-acetyl,N{Epsilon-24}-[2-[2-[2-[[2-[2-[2-[[(4S)-4-carboxy-4-(17-carboxyheptadecanoylamino)butanoyl]amino]ethoxy]ethoxy]acetyl]amino]ethoxy]ethoxy]acetyl]-[D-Tyr1,Asp14,Arg18,Glu20, Lys24]-hGIP(1-31)] (Ac-[dY]AEGTFISDYSIADDKIRQEDFVK([AEEA-AEEA-γGlu-C18 diacid])WLLAQKG-OH; C-terminus assumed) |
| 0.158 nM | CCCC[C@H](NC(=O)[C@H](C)NC(=O)[C@@H](NC(=O)[C@H](CO)NC(=O)[C@H](Cc1ccc(O)cc1)NC(=O)[C@H](CC(=O)O)NC(=O)[C@H](CO)NC(=O)[C@@H](NC(=O)[C@H](Cc1ccccc1)NC(=O)[C@@H](NC(=O)CNC(=O)[C@H](CCC(=O)O)NC(=O)C(C)(C)NC(=O)[C@@H](N)Cc1ccc(O)cc1)[C@@H](C)O)[C@@H](C)CC)[C@@H](C)CC)C(=O)N[C@@H](CC(=O)O)C(=O)N[C@@H](CCCCN)C(=O)N[C@H](C(=O)N[C@@H](Cc1c[nH]cn1)C(=O)N[C@@H](CCC(N)=O)C(=O)N[C@@H](CCC(=O)O)C(=O)N[C@@H](CC(=O)O)C(=O)N[C@@H](Cc1ccccc1)C(=O)N[C@H](C(=O)N[C@@H](CCCCNC(=O)CC[C@H](NC(=O)CC[C@H](NC(=O)CC[C@H](NC(=O)CC[C@H](NC(=O)CCCCCCCCCCCCCCCCC(=O)O)C(=O)O)C(=O)O)C(=O)O)C(=O)O)C(=O)N[C@@H](Cc1c[nH]c2ccccc12)C(=O)N[C@@H](CC(C)C)C(=O)N[C@@H](CC(C)C)C(=O)N[C@@H](C)C(=O)N[C@@H](CCC(N)=O)C(=O)N[C@@H](CCCCN)C(=O)NCC(=O)O)C(C)C)[C@@H](C)CC [Compound 20, N{Epsilon-24}-[(4S)-4-carboxy-4-[[(4S)-4-carboxy-4-[[(4S)-4-carboxy-4-[[(4S)-4-carboxy-4-(17-carboxyheptadecanoylamino)butanoyl]amino]butanoyl]amino]butanoyl]-amino]butanoyl]-[Aib2,Nle14,Glu20,Lys24]-hGIP(1-31)] (H-Y[Aib]EGTFISDYSIA[Nle]DKIHQEDFVK([γGlu-γGlu-γGlu-γGlu-C18 diacid])WLLAQKG-OH; N-terminus and C-terminus assumed) |
| 0.0202 nM | CCCC[C@H](NC(=O)[C@H](C)NC(=O)[C@@H](NC(=O)[C@H](CO)NC(=O)[C@H](Cc1ccc(O)cc1)NC(=O)[C@H](CC(=O)O)NC(=O)[C@H](CO)NC(=O)[C@@H](NC(=O)[C@H](Cc1ccccc1)NC(=O)[C@@H](NC(=O)CNC(=O)[C@H](CCC(=O)O)NC(=O)C(C)(C)NC(=O)[C@@H](N)Cc1ccc(O)cc1)[C@@H](C)O)[C@@H](C)CC)[C@@H](C)CC)C(=O)N[C@@H](CC(=O)O)C(=O)N[C@@H](CCCCN)C(=O)N[C@H](C(=O)N[C@@H](CCCNC(=N)N)C(=O)N[C@@H](CCC(N)=O)C(=O)N[C@@H](CCC(N)=O)C(=O)N[C@@H](CC(=O)O)C(=O)N[C@@H](Cc1ccccc1)C(=O)N[C@H](C(=O)N[C@@H](CCCCNC(=O)CC[C@H](NC(=O)CC[C@H](NC(=O)CC[C@H](NC(=O)CCCCCCCCCCCCCCCCC(=O)O)C(=O)O)C(=O)O)C(=O)O)C(=O)N[C@@H](Cc1c[nH]c2ccccc12)C(=O)N[C@@H](CC(C)C)C(=O)N[C@@H](CC(C)C)C(=O)N[C@@H](C)C(=O)N[C@@H](CCC(N)=O)C(=O)N[C@@H](CCCCN)C(=O)NCC(=O)N[C@@H](CCCCN)C(=O)N[C@@H](CCC(=O)O)C(=O)N[C@@H](CC(N)=O)C(=O)N[C@@H](CC(=O)O)C(=O)N[C@@H](Cc1c[nH]c2ccccc12)C(=O)N[C@@H](CCCCN)C(=O)N[C@@H](Cc1c[nH]cn1)C(=O)N[C@@H](CC(N)=O)C(=O)N[C@H](C(=O)N[C@H](C(=O)N[C@@H](CCC(N)=O)C(=O)O)[C@@H](C)O)[C@@H](C)CC)C(C)C)[C@@H](C)CC [Compound 34, N{Epsilon-24}-[(4S)-4-carboxy-4-[[(4S)-4-carboxy-4-[[(4S)-4-carboxy-4-(17-carboxyheptadecanoylamino)butanoyl]amino]butanoyl]amino]butanoyl]-[Aib2,Nle14,Arg18,Lys24,Glu33]-hGIP] |
